Assay results taken from patent US7122624B2, “Parathyroid hormone receptor ligands” (The United States of America as represented by the …, priority 1999, dated 2006).
Read-outs that look alike come from different tables or passages of the source. Values belong to the compound of their own block, whether it stands above or below them. Non-standard residues stand in square brackets, D forms with d. Residues, ends and D or L forms follow the SMILES beside them. Nle = CCCC[C@H](N)C(=O)O

Tests used:
rat PTH2 receptor = biological target: T1, rat PTH2 receptor (Rattus norvegicus, UniProt P70555); experiment: cAMP accumulation in COS-7 cells transiently expressing the rat PTH2 receptor; format: cell-based
T1 construct: expressed in transfected cells; host or cells: COS-7 (transient)
Method: To express rat PTH2 receptor in cell culture, a rat hypothalamus cDNA library was prepared in the vector CDM7 amp as described. […] A clone was isolated from a single positive pool by colony hybridization using the same ^32P labeled probe.
(§1) Cell culture supplies were obtained from Life Technologies (Frederick, Md.) except for fetal bovine serum which was from Sigma (St. Louis, Mo.).
(§2) The constructs containing the cDNA sequences of the human PTH2 receptor and β-galactosidase have been previously described.
(§3) All peptides were purchased from either Bachem (Torrance, Calif.) or Peninsula Laboratories (Belmont, Calif.). The letters ‘b,’ ‘r’ and ‘h’ designate the peptide sequence as bovine, rat and human, respectively. […] [α-^32P]dCTP was purchased from ICN Biomedicals (Costa Mesa, Calif.). Bovine hypothalamic extract was prepared by acid extraction, gel-filtration and reverse-phase HPLC as previously described. […] Antagonist inhibitory potency was examined by measuring the concentration-dependence of rPTH(1–34)-stimulated cAMP accumulation in the presence and absence of antagonist.
(§4) Statistical comparison of two sample means was evaluated using the two-tailed Student's t-test. […] Antagonist inhibitory potency was quantified using the pA2, value, the negative logarithm of the concentration of antagonist that produces a two-fold decrease of agonist EC50. This was calculated using the following equation: pA2=((EC50/EC50′)−1)−log [antagonist]

PTH2 receptor [1] = biological target: T2, PTH2 receptor (Homo sapiens, UniProt P49190); experiment: cAMP accumulation in COS-7 cells transiently expressing the human PTH2 receptor; format: cell-based; parameters: expressed in transfected cells; host or cells: COS-7 (transient)
Excerpt: as §1, §2, §3, §4

human PTH1 receptor [2] = biological target: T3, human PTH1 receptor (Homo sapiens, UniProt Q03431); experiment: cAMP accumulation in COS-7 cells transiently expressing the human PTH1 receptor; conditions: 20% human plasma
T3 sequence (Q03431 27-593): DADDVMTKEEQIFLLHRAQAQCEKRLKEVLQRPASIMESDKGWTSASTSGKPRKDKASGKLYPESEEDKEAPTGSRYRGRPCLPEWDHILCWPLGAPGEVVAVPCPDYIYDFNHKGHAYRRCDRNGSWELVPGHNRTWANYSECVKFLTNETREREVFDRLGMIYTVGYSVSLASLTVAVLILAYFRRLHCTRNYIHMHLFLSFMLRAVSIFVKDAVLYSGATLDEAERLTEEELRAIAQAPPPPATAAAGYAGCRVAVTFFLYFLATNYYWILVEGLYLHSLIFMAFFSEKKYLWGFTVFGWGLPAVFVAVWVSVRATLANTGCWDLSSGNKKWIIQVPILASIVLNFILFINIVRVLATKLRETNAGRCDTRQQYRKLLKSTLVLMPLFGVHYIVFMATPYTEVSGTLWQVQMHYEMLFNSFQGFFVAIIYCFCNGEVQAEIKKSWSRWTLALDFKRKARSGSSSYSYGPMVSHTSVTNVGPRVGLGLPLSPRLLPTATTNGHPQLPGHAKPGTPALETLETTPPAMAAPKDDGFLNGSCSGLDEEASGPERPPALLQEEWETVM

human PTH1 receptor [3] = biological target: T3, human PTH1 receptor; experiment: Radioligand displacement binding to HEK293 cell membranes expressing the human PTH1 receptor; conditions: presence of 10 μM GTPγS
PTH2 receptor [4] = biological target: T2, PTH2 receptor; experiment: Radioligand displacement binding to HEK293 cell membranes expressing the human PTH2 receptor
[5] = 1 μM antagonist against rPTH(1–34)-stimulated cAMP
[6] = rat receptor response relative to human PTH2 receptor response measured in parallel

T2 sequence (P49190 25-550): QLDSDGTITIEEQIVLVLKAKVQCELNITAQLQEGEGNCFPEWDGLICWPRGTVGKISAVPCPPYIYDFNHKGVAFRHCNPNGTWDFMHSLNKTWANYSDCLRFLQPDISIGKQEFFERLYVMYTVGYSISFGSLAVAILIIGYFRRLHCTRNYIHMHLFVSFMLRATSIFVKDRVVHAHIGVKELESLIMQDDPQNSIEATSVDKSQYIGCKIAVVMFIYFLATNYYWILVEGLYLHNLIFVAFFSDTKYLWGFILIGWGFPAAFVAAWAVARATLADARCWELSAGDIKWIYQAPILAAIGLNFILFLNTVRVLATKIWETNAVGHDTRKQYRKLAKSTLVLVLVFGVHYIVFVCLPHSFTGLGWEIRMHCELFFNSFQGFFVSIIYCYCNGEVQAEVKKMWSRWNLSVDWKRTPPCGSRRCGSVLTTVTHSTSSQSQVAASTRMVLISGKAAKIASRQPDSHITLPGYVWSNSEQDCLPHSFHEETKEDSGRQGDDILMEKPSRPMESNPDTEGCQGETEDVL
T1 sequence (P70555 25-546): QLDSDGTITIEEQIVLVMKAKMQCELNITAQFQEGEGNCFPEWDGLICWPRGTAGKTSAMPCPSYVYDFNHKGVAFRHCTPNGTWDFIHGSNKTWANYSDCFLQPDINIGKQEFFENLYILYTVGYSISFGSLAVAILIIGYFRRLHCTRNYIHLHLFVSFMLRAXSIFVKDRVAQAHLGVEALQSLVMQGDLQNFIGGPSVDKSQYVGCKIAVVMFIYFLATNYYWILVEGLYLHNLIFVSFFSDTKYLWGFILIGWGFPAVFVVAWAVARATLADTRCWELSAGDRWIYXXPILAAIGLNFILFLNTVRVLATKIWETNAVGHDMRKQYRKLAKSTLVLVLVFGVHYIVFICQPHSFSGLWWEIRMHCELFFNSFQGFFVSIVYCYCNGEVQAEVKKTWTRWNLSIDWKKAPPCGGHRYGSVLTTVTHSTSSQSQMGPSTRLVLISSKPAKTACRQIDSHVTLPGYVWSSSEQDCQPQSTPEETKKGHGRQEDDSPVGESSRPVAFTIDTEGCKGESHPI

- pA2 (rat PTH2 receptor; [5]): 6.5±0.2
- pA2 as concentration (rat PTH2 receptor; [5]): 310 nM
- basal cAMP accumulation, % of basal response in the absence of antagonist (rat PTH2 receptor; 1 μM antagonist, no rPTH(1–34)): 104±11%
- pA2 (PTH2 receptor [1]; [5]): 6.5±0.1
- pA2 as concentration (PTH2 receptor [1]; [5]): 320 nM
- basal cAMP accumulation, % of basal response in the absence of antagonist (PTH2 receptor [1]; 1 μM antagonist, no rPTH(1–34)): 110±16%
Compound: [Nle^8,18, D-Tryp^12, Tyr^34]bPTH(7–34) amide

- effect of human plasma on antagonist potency (human PTH1 receptor [2]): did not reduce the antagonist potency
- difference of IC50 relative to TIP(7–39) (human PTH1 receptor [3]): 7.3 fold
Compound: [D-Tryp^12, Tyr^34]bPTH(7–34) amide [[D-Tryp^12, Tyr^34]PTH(7–34)]

- IC50 (PTH2 receptor [4]): 1.1 nM
- shift (increase) of IC50 produced by 10 μM GTPγS (PTH2 receptor [4]; centrifugation assay, [125I]TIP39): 1.5 fold
Compound: CCCC[C@H](NC(=O)[C@H](CCCNC(=N)N)NC(=O)[C@H](CCC(=O)O)NC(=O)[C@@H](NC(=O)[C@H](CO)NC(=O)[C@H](C)NC(=O)[C@H](CC(C)C)NC(=O)[C@H](Cc1c[nH]cn1)NC(=O)[C@H](CCCCN)NC(=O)CNC(=O)[C@H](CC(C)C)NC(=O)[C@H](CC(N)=O)NC(=O)[C@H](Cc1c[nH]cn1)NC(=O)[C@H](CCCC)NC(=O)[C@H](CC(C)C)NC(=O)[C@H](CCC(N)=O)NC(=O)[C@@H](NC(=O)[C@H](CCC(=O)O)NC(=O)[C@H](CO)NC(=O)[C@@H](NC(=O)[C@H](C)N)C(C)C)[C@@H](C)CC)C(C)C)C(=O)N[C@@H](CCC(N)=O)C(=O)N[C@@H](Cc1c[nH]c2ccccc12)C(=O)N[C@@H](CC(C)C)C(=O)N[C@@H](CCCNC(=N)N)C(=O)N[C@@H](CCCCN)C(=O)N[C@@H](CCCCN)C(=O)N[C@@H](CC(C)C)C(=O)N[C@@H](CCC(N)=O)C(=O)N[C@@H](CC(=O)O)C(=O)N[C@H](C(=O)N[C@@H](Cc1c[nH]cn1)C(=O)N[C@@H](CC(N)=O)C(=O)N[C@@H](Cc1ccc(O)cc1)C(N)=O)C(C)C [[Nle^8,21, Tyr^34]rPTH(1–34), [Nle^8,21, Tyr^34]rPTH(1–34) amide]

- effect of human plasma on antagonist potency (human PTH1 receptor [2]): did not reduce the antagonist potency
Compound: PTHrP(7–34) amide

Compound: hPTH(1-84)
- Emax, % of response of rPTH2r to 3 μM rPTH(1-34) (rat PTH2 receptor; intrinsic activity, COS-7): 42 ± 5%
- Emax, % of response of hPTH2r to 1 μM hPTH(1-34) (rat PTH2 receptor; [6]): 15 ± 4%
- Emax, % of response to 1 μM hPTH(1-34) (PTH2 receptor [1]; intrinsic activity, COS-7): 79 ± 1%

Compound: hPTH(1-34)
- Emax, % of response of rPTH2r to 3 μM rPTH(1-34) (rat PTH2 receptor; intrinsic activity, COS-7): 43 ± 4%
- Emax, % of response of hPTH2r to 1 μM hPTH(1-34) (rat PTH2 receptor; [6]): 22 ± 7%
- Emax, % of response to 1 μM hPTH(1-34) (PTH2 receptor [1]; intrinsic activity, COS-7): 100%

- Emax (rat PTH2 receptor; COS-7, read-out: Emax, % of response of hPTH2r to 1 μM hPTH(1-34), rat receptor response relative to human PTH2 receptor response measured in parallel): 5 ± 1%
- Emax (rat PTH2 receptor; read-out: Emax, % of response of rPTH2r to 3 μM rPTH(1-34), intrinsic activity, COS-7): 19 ± 3%
- Emax (PTH2 receptor [1]; read-out: Emax, % of response to 1 μM hPTH(1-34), intrinsic activity, COS-7): 76 ± 7%
Compound: CCCC[C@H](NC(=O)[C@H](CO)NC(=O)[C@H](CO)NC(=O)[C@H](CC(C)C)NC(=O)[C@H](Cc1c[nH]cn1)NC(=O)[C@H](CCCCN)NC(=O)CNC(=O)[C@H](CC(C)C)NC(=O)[C@H](CC(N)=O)NC(=O)[C@H](Cc1c[nH]cn1)NC(=O)[C@H](CCCC)NC(=O)[C@H](Cc1ccccc1)NC(=O)[C@H](CCC(N)=O)NC(=O)[C@@H](NC(=O)[C@H](CCC(=O)O)NC(=O)[C@H](CO)NC(=O)[C@@H](NC(=O)[C@H](C)N)C(C)C)[C@@H](C)CC)C(=O)N[C@@H](CCC(=O)O)C(=O)N[C@@H](CCCNC(=N)N)C(=O)N[C@H](C(=O)N[C@@H](CCC(=O)O)C(=O)N[C@@H](Cc1c[nH]c2ccccc12)C(=O)N[C@@H](CC(C)C)C(=O)N[C@@H](CCCNC(=N)N)C(=O)N[C@@H](CCCCN)C(=O)N[C@@H](CCCCN)C(=O)N[C@@H](CC(C)C)C(=O)N[C@@H](CCC(N)=O)C(=O)N[C@@H](CC(=O)O)C(=O)N[C@H](C(=O)N[C@@H](Cc1c[nH]cn1)C(=O)N[C@@H](CC(N)=O)C(=O)N[C@@H](Cc1ccc(O)cc1)C(N)=O)C(C)C)C(C)C [[Nle^8,18, Tyr^34]bPTH(1-34)] (H-AVSEIQF[Nle]HNLGKHLSS[Nle]ERVEWLRKKLQDVHNY-NH2; N-terminus and C-terminus assumed)

- Emax, % of response of rPTH2r to 3 μM rPTH(1-34) (rat PTH2 receptor; intrinsic activity, COS-7): 14 ± 1%
- Emax, % of response of hPTH2r to 1 μM hPTH(1-34) (rat PTH2 receptor; [6]): 7 ± 3%
- higher potency for the rat receptor than the human receptor (rat PTH2 receptor; rat vs human PTH2 receptor EC50): 14 fold
- Emax, % of response to 1 μM hPTH(1-34) (PTH2 receptor [1]; intrinsic activity, COS-7): 25 ± 3%
Compound: PTHrP(1-34)
